Key:
D(2) dopamine receptor [1] = target: T1, D(2) dopamine receptor (Homo sapiens, UniProt P14416); assay: Displacement of [3H]spiperone from human D2short receptor stably expressed in CHO cell membranes by competitive binding assay
D(2) dopamine receptor [2] = target: T1, D(2) dopamine receptor; assay: Displacement of [3H]spiperone from human D2long receptor stably expressed in CHO cell membranes by competitive binding assay
D(1A) dopamine receptor = D(1A) dopamine receptor (Sus scrofa, UniProt P50130); assay: Displacement of [3H]SCH23390 from porcine striatal membranes D1 receptor by competitive binding assay
D(3) dopamine receptor = D(3) dopamine receptor (Homo sapiens, UniProt P35462); assay: Displacement of [3H]spiperone from human D3 receptor stably expressed in CHO cell membranes by competitive binding assay
D(4) dopamine receptor = target: T2, D(4) dopamine receptor (Homo sapiens, UniProt P21917); assay: Displacement of [3H]spiperone from human D4.4 receptor stably expressed in CHO cell membranes by competitive binding assay
T2 sequence (P21917 whole entry): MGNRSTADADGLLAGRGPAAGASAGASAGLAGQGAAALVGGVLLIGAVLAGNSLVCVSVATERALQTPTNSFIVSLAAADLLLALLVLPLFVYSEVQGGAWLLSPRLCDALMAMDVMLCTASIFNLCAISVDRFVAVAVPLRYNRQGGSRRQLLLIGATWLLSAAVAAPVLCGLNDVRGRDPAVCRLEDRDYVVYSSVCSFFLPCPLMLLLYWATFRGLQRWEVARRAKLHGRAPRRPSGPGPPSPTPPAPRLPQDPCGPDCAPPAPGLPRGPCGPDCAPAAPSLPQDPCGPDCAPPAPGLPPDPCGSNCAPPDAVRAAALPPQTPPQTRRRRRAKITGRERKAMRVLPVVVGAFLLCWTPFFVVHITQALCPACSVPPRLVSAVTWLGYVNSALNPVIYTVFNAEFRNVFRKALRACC

CHO [3] = assay: Selectivity ratio of Ki for human D4.4 receptor stably expressed in CHO cell membranes to Ki for human D3 receptor stably expressed in CHO cell membranes; type: cell-based
CHO [4] = assay: Selectivity ratio of Ki for human D3 receptor stably expressed in CHO cell membranes to Ki for human D4.4 receptor stably expressed in CHO cell membranes; type: cell-based

Sequence of D(1A) dopamine receptor (P50130 whole entry): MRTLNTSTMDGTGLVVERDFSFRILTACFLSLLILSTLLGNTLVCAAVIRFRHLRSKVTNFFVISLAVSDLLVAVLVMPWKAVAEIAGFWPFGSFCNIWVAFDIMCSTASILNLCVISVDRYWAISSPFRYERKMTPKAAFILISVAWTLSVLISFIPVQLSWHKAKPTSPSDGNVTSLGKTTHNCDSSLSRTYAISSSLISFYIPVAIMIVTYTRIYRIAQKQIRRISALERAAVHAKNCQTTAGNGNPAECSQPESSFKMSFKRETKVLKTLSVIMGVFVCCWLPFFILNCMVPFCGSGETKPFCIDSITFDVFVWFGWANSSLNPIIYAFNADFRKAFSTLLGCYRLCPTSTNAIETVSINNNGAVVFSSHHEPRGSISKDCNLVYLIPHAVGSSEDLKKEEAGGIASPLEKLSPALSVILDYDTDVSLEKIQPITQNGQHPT
Sequence of D(3) dopamine receptor (P35462 whole entry): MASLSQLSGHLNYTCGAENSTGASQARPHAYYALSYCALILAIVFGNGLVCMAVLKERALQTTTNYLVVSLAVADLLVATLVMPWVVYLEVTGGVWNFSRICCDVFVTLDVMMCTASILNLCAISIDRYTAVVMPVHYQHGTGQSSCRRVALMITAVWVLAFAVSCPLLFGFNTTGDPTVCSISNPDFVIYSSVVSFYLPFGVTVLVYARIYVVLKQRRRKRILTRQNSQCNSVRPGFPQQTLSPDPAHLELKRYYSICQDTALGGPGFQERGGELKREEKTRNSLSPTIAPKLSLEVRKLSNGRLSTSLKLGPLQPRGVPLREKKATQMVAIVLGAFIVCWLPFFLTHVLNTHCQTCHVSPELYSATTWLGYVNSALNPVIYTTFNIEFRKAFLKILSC
T1 sequence (P14416 whole entry): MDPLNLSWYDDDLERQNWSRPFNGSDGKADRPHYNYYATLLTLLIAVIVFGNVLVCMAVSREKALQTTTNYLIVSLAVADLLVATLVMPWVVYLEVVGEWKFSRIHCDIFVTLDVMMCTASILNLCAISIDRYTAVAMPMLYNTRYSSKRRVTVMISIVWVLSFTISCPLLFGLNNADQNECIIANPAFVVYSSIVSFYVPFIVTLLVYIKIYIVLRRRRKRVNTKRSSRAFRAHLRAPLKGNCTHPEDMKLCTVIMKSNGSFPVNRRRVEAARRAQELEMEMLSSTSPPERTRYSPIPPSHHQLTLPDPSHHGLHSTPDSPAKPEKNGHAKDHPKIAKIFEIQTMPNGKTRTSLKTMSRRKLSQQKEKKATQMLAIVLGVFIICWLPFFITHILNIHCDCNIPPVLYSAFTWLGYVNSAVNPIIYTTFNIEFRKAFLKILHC

Row | Structure (SMILES) | Ki (D(2) dopamine receptor [1]) [nM] | Ki (D(2) dopamine receptor [2]) [nM] | Ki (D(1A) dopamine receptor) [nM] | Ki (D(3) dopamine receptor) [nM] | Ki (D(4) dopamine receptor) [nM] | Ratio Ki (CHO [3]) | Ratio Ki (CHO [4])
1 | O=C(CCCC(=O)OC1(c2ccc(Cl)cc2)CCN(CCCC(=O)c2ccc(F)cc2)CC1)OC1(c2ccc(Cl)cc2)CCN(CCCC(=O)c2ccc(F)cc2)CC1 | 12 | 12 | 220 | 31 | 33 |  | 
2 | O=C(CCCCCCCCCCC(=O)OC1(c2ccc(Cl)cc2)CCN(CCCC(=O)c2ccc(F)cc2)CC1)OC1(c2ccc(Cl)cc2)CCN(CCCC(=O)c2ccc(F)cc2)CC1 | 46 | 66 | 1100 | 210 | 2200 |  | 
3 | O=C(CCCCCCCCC(=O)OC1(c2ccc(Cl)cc2)CCN(CCCC(=O)c2ccc(F)cc2)CC1)OC1(c2ccc(Cl)cc2)CCN(CCCC(=O)c2ccc(F)cc2)CC1 | 31 | 15 | 1400 | 39 | 490 |  | 
4 | O=C(CCCCCCC(=O)OC1(c2ccc(Cl)cc2)CCN(CCCC(=O)c2ccc(F)cc2)CC1)OC1(c2ccc(Cl)cc2)CCN(CCCC(=O)c2ccc(F)cc2)CC1 | 2.9 | 2.5 | 920 | 6.4 | 300 |  | 
5 | O=C(CCCCCCCCCCCCCCCCCCC(=O)OC1(c2ccc(Cl)cc2)CCN(CCCC(=O)c2ccc(F)cc2)CC1)OC1(c2ccc(Cl)cc2)CCN(CCCC(=O)c2ccc(F)cc2)CC1 | 27 | 25 | 1400 | 82 | 160 |  | 
6 | O=C(CCCCCCCCCCCCCCC(=O)OC1(c2ccc(Cl)cc2)CCN(CCCC(=O)c2ccc(F)cc2)CC1)OC1(c2ccc(Cl)cc2)CCN(CCCC(=O)c2ccc(F)cc2)CC1 | 280 | 140 | 6800 | 220 | 1400 |  | 
7 | O=C(CCc1cn(CCCCCCCCCCn2cc(CCC(=O)OC3(c4ccc(Cl)cc4)CCN(CCCC(=O)c4ccc(F)cc4)CC3)nn2)nn1)OC1(c2ccc(Cl)cc2)CCN(CCCC(=O)c2ccc(F)cc2)CC1 | 5.4 | 4.9 | 86 | 5.9 | 89 |  | 
8 | CN(CCC(=O)OC1(c2ccc(Cl)cc2)CCN(CCCC(=O)c2ccc(F)cc2)CC1)CCN(C)CCC(=O)OC1(c2ccc(Cl)cc2)CCN(CCCC(=O)c2ccc(F)cc2)CC1 | 2.2 | 3.2 | 260 | 47 | 29 |  | 
9 | O=C(CCc1cn(CCOCCOCCOCCn2cc(CCC(=O)OC3(c4ccc(Cl)cc4)CCN(CCCC(=O)c4ccc(F)cc4)CC3)nn2)nn1)OC1(c2ccc(Cl)cc2)CCN(CCCC(=O)c2ccc(F)cc2)CC1 | 3 | 1 | 120 | 9.8 | 41 |  | 
10 | O=C(CCCCCCCCCCCCCCCCC(=O)OC1(c2ccc(Cl)cc2)CCN(CCCC(=O)c2ccc(F)cc2)CC1)OC1(c2ccc(Cl)cc2)CCN(CCCC(=O)c2ccc(F)cc2)CC1 | 150 | 160 | 930 | 380 | 570 |  | 
11 | O=C(CCCCC(=O)OC1(c2ccc(Cl)cc2)CCN(CCCC(=O)c2ccc(F)cc2)CC1)OC1(c2ccc(Cl)cc2)CCN(CCCC(=O)c2ccc(F)cc2)CC1 | 2.3 | 3 | 220 | 11 | 41 | 2 | 
12 | O=C(CCCCCC(=O)OC1(c2ccc(Cl)cc2)CCN(CCCC(=O)c2ccc(F)cc2)CC1)OC1(c2ccc(Cl)cc2)CCN(CCCC(=O)c2ccc(F)cc2)CC1 | 2.6 | 3.3 | 280 | 11 | 360 |  | 
13 | O=C(CCc1cn(CCCCCCCCn2cc(CCC(=O)OC3(c4ccc(Cl)cc4)CCN(CCCC(=O)c4ccc(F)cc4)CC3)nn2)nn1)OC1(c2ccc(Cl)cc2)CCN(CCCC(=O)c2ccc(F)cc2)CC1 | 1.6 | 1.3 | 49 | 1.8 | 19 |  | 
14 | CN(C)CCC(=O)OC1(c2ccc(Cl)cc2)CCN(CCCC(=O)c2ccc(F)cc2)CC1 | 1.8 | 1.9 | 200 | 30 | 8.7 |  | 
15 | O=C(CCC(=O)OC1(c2ccc(Cl)cc2)CCN(CCCC(=O)c2ccc(F)cc2)CC1)OC1(c2ccc(Cl)cc2)CCN(CCCC(=O)c2ccc(F)cc2)CC1 | 5.4 | 6.7 | 130 | 14 | 24 | 2 | 
16 | O=C(CCN1CCN(CCC(=O)OC2(c3ccc(Cl)cc3)CCN(CCCC(=O)c3ccc(F)cc3)CC2)CC1)OC1(c2ccc(Cl)cc2)CCN(CCCC(=O)c2ccc(F)cc2)CC1 | 1.1 | 2.5 | 360 | 9.5 | 33 |  | 
17 | O=C(CCc1cn(CCOCCOCCOCCOCCn2cc(CCC(=O)OC3(c4ccc(Cl)cc4)CCN(CCCC(=O)c4ccc(F)cc4)CC3)nn2)nn1)OC1(c2ccc(Cl)cc2)CCN(CCCC(=O)c2ccc(F)cc2)CC1 | 3.8 | 1.6 | 150 | 19 | 46 |  | 
18 | O=C(CCC(=O)N1CCC(O)(c2ccc(Cl)cc2)CC1)c1ccc(F)cc1 | 470 | 860 | 19000 | 1700 | 18000 |  | 
19 | CCC(=O)OC1(c2ccc(Cl)cc2)CCN(CCCC(=O)c2ccc(F)cc2)CC1 | 1.6 | 3.9 | 72 | 41 | 2.5 |  | 8
20 | CC(=O)OC1(c2ccc(Cl)cc2)CCN(CCCC(=O)c2ccc(F)cc2)CC1 | 4.5 | 4.5 | 59 | 56 | 9.3 |  | 8
21 | Cc1ccc(C(=O)OC2(c3ccc(Cl)cc3)CCN(CCCC(=O)c3ccc(F)cc3)CC2)cc1 | 47 | 56 | 550 | 270 | 130 |  | 
22 | O=C(CCCCCCCC(=O)OC1(c2ccc(Cl)cc2)CCN(CCCC(=O)c2ccc(F)cc2)CC1)OC1(c2ccc(Cl)cc2)CCN(CCCC(=O)c2ccc(F)cc2)CC1 | 6.5 | 5.6 | 1200 | 9.1 | 520 |  | 
23 | O=C(CCCCCCCCCCCCC(=O)OC1(c2ccc(Cl)cc2)CCN(CCCC(=O)c2ccc(F)cc2)CC1)OC1(c2ccc(Cl)cc2)CCN(CCCC(=O)c2ccc(F)cc2)CC1 | 62 | 120 | 1400 | 160 | 490 |  | 
24 | O=C(CCCCCCCCCCCCCCCCCCCCC(=O)OC1(c2ccc(Cl)cc2)CCN(CCCC(=O)c2ccc(F)cc2)CC1)OC1(c2ccc(Cl)cc2)CCN(CCCC(=O)c2ccc(F)cc2)CC1 | 280 | 310 | 1500 | 500 | 850 |  | 
25 | CCCCCCCCCC(=O)OC1(c2ccc(Cl)cc2)CCN(CCCC(=O)c2ccc(F)cc2)CC1 [HALOPERIDOL DECANOATE] | 0.46 | 1.8 | 140 | 3.5 | 5.8 |  | 
